Patent US11661426B2, “Imidazole-containing inhibitors of ALK2 kinase” (BioCryst Pharmaceuticals, Inc., priority 2017, dated 2023)

Target: ALK2 (Homo sapiens (Human), UniProt Q04771)
Assay: ALK2 inhibition, LanthaScreen Eu Kinase Binding Assay (ThermoFisher Scientific / Life Technologies)
Conditions: read-out: Measured Ki (IC50) Value for Compounds: IC50
Experimental: Biochemical assays to measure the inhibitory effects of the compounds were performed by ThermoFisher Scientific (Life Technologies). ALK2 inhibition was tested using LanthaScreen™ Eu Kinase Binding Assay screening protocol.

Chain of ALK2 (Q04771 21-509): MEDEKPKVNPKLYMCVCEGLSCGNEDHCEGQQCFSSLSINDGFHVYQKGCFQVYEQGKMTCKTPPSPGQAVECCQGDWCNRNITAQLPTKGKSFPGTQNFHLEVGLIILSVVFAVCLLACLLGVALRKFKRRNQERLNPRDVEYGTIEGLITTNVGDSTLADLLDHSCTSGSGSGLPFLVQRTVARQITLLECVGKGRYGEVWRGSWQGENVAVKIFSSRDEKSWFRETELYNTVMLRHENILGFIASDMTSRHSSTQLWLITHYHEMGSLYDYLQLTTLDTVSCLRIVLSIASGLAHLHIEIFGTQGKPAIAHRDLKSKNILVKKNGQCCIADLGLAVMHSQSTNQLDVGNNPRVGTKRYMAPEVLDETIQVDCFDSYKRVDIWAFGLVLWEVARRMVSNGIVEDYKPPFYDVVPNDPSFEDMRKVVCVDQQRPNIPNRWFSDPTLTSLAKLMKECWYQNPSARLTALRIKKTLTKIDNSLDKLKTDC

Row | Structure (SMILES) | IC50 [nM]
1 | COc1cc(-n2cnc(Nc3nc(N4CCC[C@H]4CO)c4c(C)nn([C@H]5C[C@@H](N)C5)c4n3)c2)cc(OC)c1OC [Compound 444c, ((S)-1-(1-((cis)-3-aminocyclobutyl)-3-methyl-6-((1-(3,4,5-trimethoxyphenyl)-1H-imidazol-4-yl)amino)-1H-pyrazolo[3,4-d]pyrimidin-4-yl)pyrrolidin-2-yl)methanol] | < 100
2 | COc1cc(-n2cnc(Nc3nc(N4CCC[C@H]4CO)c4c(C)nn([C@H]5C[C@H](N)C5)c4n3)c2)cc(OC)c1OC [Compound 445c, ((S)-1-(1-((trans)-3-aminocyclobutyl)-3-methyl-6-((1-(3,4,5-trimethoxyphenyl)-1H-imidazol-4-yl)amino)-1H-pyrazolo[3,4-d]pyrimidin-4-yl)pyrrolidin-2-yl)methanol] | < 100
3 | COc1cc(-n2cnc(Nc3nc(N4CCC[C@H]4CO)c4c(C)nn(C5CCOC5)c4n3)c2)cc(OC)c1OC (stereo partly drawn) [Compound 446c, ((2S)-1-(3-methyl-1-(tetrahydrofuran-3-yl)-6-((1-(3,4,5-trimethoxyphenyl)-1H-imidazol-4-yl)amino)-1H-pyrazolo[3,4-d]pyrimidin-4-yl)pyrrolidin-2-yl)methanol] | < 100
4 | COc1cc(-n2cnc(Nc3nc(N4CCC[C@H]4CO)c4c(C)nn([C@H]5CC[C@@H](O)CC5)c4n3)c2)cc(OC)c1OC [Compound 447c, (cis)-4-(4-((S)-2-(hydroxymethyl)pyrrolidin-1-yl)-3-methyl-6-((1-(3,4,5-trimethoxyphenyl)-1H-imidazol-4-yl)amino)-1H-pyrazolo[3,4-d]pyrimidin-1-yl)cyclohexanol] | < 100
5 | COc1cc(-n2cnc(Nc3nc(N4CCC[C@H]4CO)nc4c3cnn4CC3CCCCC3)c2)cc(OC)c1OC [Compound 453d, (S)-(1-(1-(cyclohexylmethyl)-4-((1-(3,4,5-trimethoxyphenyl)-1H-imidazol-4-yl)amino)-1H-pyrazolo[3,4-d]pyrimidin-6-yl)pyrrolidin-2-yl)methanol] | < 100
6 | COc1cc(-n2cnc(Nc3nc(N4CCC[C@H]4CO)c4c(C)nn(C5CCOCC5)c4n3)c2)cc(OC)c1OC [Compound 454c, (S)-(1-(3-methyl-1-(tetrahydro-2H-pyran-4-yl)-6-((1-(3,4,5-trimethoxyphenyl)-1H-imidazol-4-yl)amino)-1H-pyrazolo[3,4-d]pyrimidin-4-yl)pyrrolidin-2-yl)methanol] | < 100
7 | COc1cc(-n2cnc(Nc3nc(N4CCC[C@H]4CO)c4c(C)nn(C(C)C)c4n3)c2)cc(OC)c1OC [Compound 456c, (S)-(1-(1-isopropyl-3-methyl-6-((1-(3,4,5-trimethoxyphenyl)-1H-imidazol-4-yl)amino)-1H-pyrazolo[3,4-d]pyrimidin-4-yl)pyrrolidin-2-yl)methanol] | < 100
8 | COc1cc(-n2cnc(Nc3nc(N4CCC[C@H]4CO)nc4c3cnn4[C@H]3CC[C@@H](O)CC3)c2)cc(OC)c1OC [Compound 457c, (cis)-4-(6-((S)-2-(hydroxymethyl)pyrrolidin-1-yl)-4-((1-(3,4,5-trimethoxyphenyl)-1H-imidazol-4-yl)amino)-1H-pyrazolo[3,4-d]pyrimidin-1-yl)cyclohexanol] | < 100
9 | CCn1nc(C)c2c(N3CCC[C@H]3CO)nc(Nc3cn(-c4cc(OC)c(OC)c(OC)c4)cn3)nc21 [Compound 458c, (S)-(1-(1-ethyl-3-methyl-6-((1-(3,4,5-trimethoxyphenyl)-1H-imidazol-4-yl)amino)-1H-pyrazolo[3,4-d]pyrimidin-4-yl)pyrrolidin-2-yl)methanol] | < 100
10 | COc1cc(-n2cnc(Nc3nc(N4CCC[C@H]4CO)c4c(C)nn(C5CC(F)(F)C5)c4n3)c2)cc(OC)c1OC [Compound 459c, (S)-(1-(1-(3,3-difluorocyclobutyl)-3-methyl-6-((1-(3,4,5-trimethoxyphenyl)-1H-imidazol-4-yl)amino)-1H-pyrazolo[3,4-d]pyrimidin-4-yl)pyrrolidin-2-yl)methanol] | < 100
11 | COc1cc(-n2cnc(Nc3nc(N4CCC[C@@H]4CO)c4c(C)nn(C5CCC5)c4n3)c2)cc(OC)c1OC [Compound 460d, (R)-(1-(1-cyclobutyl-3-methyl-6-((1-(3,4,5-trimethoxyphenyl)-1H-imidazol-4-yl)amino)-1H-pyrazolo[3,4-d]pyrimidin-4-yl)pyrrolidin-2-yl)methanol] | < 100
12 | COc1cc(-c2cnc(Nc3nc(N4CCC[C@H]4CO)nn4cccc34)s2)cc(OC)c1OC [Compound 461c, (S)-(1-(4-((5-(3,4,5-trimethoxyphenyl)thiazol-2-yl)amino)pyrrolo[2,1-f][1,2,4]triazin-2-yl)pyrrolidin-2-yl)methanol] | < 100
13 | COc1cc(-n2cnc(Nc3nc(N4CCC[C@H]4CO)nc4c3ccn4CC3CCCCC3)c2)cc(OC)c1OC [Compound 462c, (S)-(1-(7-(cyclohexylmethyl)-4-((1-(3,4,5-trimethoxyphenyl)-1H-imidazol-4-yl)amino)-7H-pyrrolo[2,3-d]pyrimidin-2-yl)pyrrolidin-2-yl)methanol] | < 100
14 | COc1cc(-n2cnc(Nc3nc(N4CCC[C@H]4CO)c4c(C)nn(CC5CC5)c4n3)c2)cc(OC)c1OC [Compound 463c, (S)-(1-(1-(cyclopropylmethyl)-3-methyl-6-((1-(3,4,5-trimethoxyphenyl)-1H-imidazol-4-yl)amino)-1H-pyrazolo[3,4-d]pyrimidin-4-yl)pyrrolidin-2-yl)methanol] | < 100
15 | COc1cc(-n2cnc(Nc3nc(N4CCC[C@H]4CO)c4cnn(C5CCC5)c4n3)c2)cc(OC)c1OC [Compound 464d, (S)-(1-(1-cyclobutyl-6-((1-(3,4,5-trimethoxyphenyl)-1H-imidazol-4-yl)amino)-1H-pyrazolo[3,4-d]pyrimidin-4-yl)pyrrolidin-2-yl)methanol] | < 100
16 | COc1cc(-n2cnc(Nc3nc(N4CCC[C@H]4CO)c4c(C)nn([C@H]5C[C@H](O)C5)c4n3)c2)cc(OC)c1OC [Compound 465c, (trans)-3-(4-((S)-2-(hydroxymethyl)pyrrolidin-1-yl)-3-methyl-6-((1-(3,4,5-trimethoxyphenyl)-1H-imidazol-4-yl)amino)-1H-pyrazolo[3,4-d]pyrimidin-1-yl)cyclobutanol] | < 100
17 | COc1cc(-n2cnc(Nc3nc(N4CCC[C@H]4CO)c4c(C)nn([C@H]5C[C@@H](O)C5)c4n3)c2)cc(OC)c1OC [Compound 466c, (cis)-3-(4-((S)-2-(hydroxymethyl)pyrrolidin-1-yl)-3-methyl-6-((1-(3,4,5-trimethoxyphenyl)-1H-imidazol-4-yl)amino)-1H-pyrazolo[3,4-d]pyrimidin-1-yl)cyclobutanol] | < 100

Further lines, results first:

Row | IC50 [nM] | Structure (SMILES)
18 | < 100 | OC[C@@H]1CCCN1c1nc(Nc2cn(-c3ccnc4ccccc34)cn2)c2cccn2n1 [Compound 448e, (S)-(1-(4-((1-(quinolin-4-yl)-1H-imidazol-4-yl)amino)pyrrolo[2,1-f][1,2,4]triazin-2-yl)pyrrolidin-2-yl)methanol]
19 | < 100 | OC[C@@H]1CCCN1c1nc(Nc2cn(-c3cn(C4CC4)cn3)cn2)c2cccn2n1 [Compound 449d, (S)-(1-(4-((1′-cyclopropyl-1′H-[1,4′-biimidazol]-4-yl)amino)pyrrolo[2,1-f][1,2,4]triazin-2-yl)pyrrolidin-2-yl)methanol]
20 | 100 to 1000 | OC[C@@H]1CCCN1c1nc(Nc2cn(-c3cn(C4CCC4)cn3)cn2)c2cccn2n1 [Compound 450d, (S)-(1-(4-((1′-cyclobutyl-1′H-[1,4′-biimidazol]-4-yl)amino)pyrrolo[2,1-f][1,2,4]triazin-2-yl)pyrrolidin-2-yl)methanol]
21 | 100 to 1000 | OC[C@@H]1CCCN1c1nc(Nc2cn(-c3cn(C4CCCC4)cn3)cn2)c2cccn2n1 [Compound 451d, (S)-(1-(4-((1′-cyclopentyl-1′H-[1,4′-biimidazol]-4-yl)amino)pyrrolo[2,1-f][1,2,4]triazin-2-yl)pyrrolidin-2-yl)methanol]
22 | 100 to 1000 | OC[C@@H]1CCCN1c1nc(Nc2cn(-c3cn(C4CCCCC4)cn3)cn2)c2cccn2n1 [Compound 452d, (S)-(1-(4-((1′-cyclohexyl-1′H-[1,4′-biimidazol]-4-yl)amino)pyrrolo[2,1-f][1,2,4]triazin-2-yl)pyrrolidin-2-yl)methanol]
23 | 100 to 1000 | OC[C@@H]1CCCN1c1nc(Nc2nccs2)c2cccn2n1 [Compound 455c, (S)-(1-(4-(thiazol-2-ylamino)pyrrolo[2,1-f][1,2,4]triazin-2-yl)pyrrolidin-2-yl)methanol]
24 | > 1000 | COC(=O)c1cnc(Nc2nc(N3CCC[C@H]3CO)nn3cccc23)s1 [Compound 455d, (S)-methyl 2-((2-(2-(hydroxymethyl)pyrrolidin-1-yl)pyrrolo[2,1-f][1,2,4]triazin-4-yl)amino)thiazole-5-carboxylate]
25 | > 1000 | O=C(c1cnc(Nc2nc(N3CCC[C@H]3CO)nn3cccc23)s1)N1CCC[C@H]1CO [Compound 467c, ((S)-2-(hydroxymethyl)pyrrolidin-1-yl)(2-((2-((S)-2-(hydroxymethyl)pyrrolidin-1-yl)pyrrolo[2,1-f][1,2,4]triazin-4-yl)amino)thiazol-5-yl)methanone]
26 | > 1000 | CNC(=O)c1cc(C2CC2)cc(-n2cnc(Nc3nc(N4CCC[C@H]4CO)nn4cccc34)c2)c1 [Compound 468g, (S)-3-cyclopropyl-5-(4-((2-(2-(hydroxymethyl)pyrrolidin-1-yl)pyrrolo[2,1-f][1,2,4]triazin-4-yl)amino)-1H-imidazol-1-yl)-N-methylbenzamide]
27 | 100 to 1000 | O=C1OCc2ccc(-n3cnc(Nc4nc(N5CCC[C@H]5CO)nn5cccc45)c3)cc21 [Compound 469g, (S)-6-(4-((2-(2-(hydroxymethyl)pyrrolidin-1-yl)pyrrolo[2,1-f][1,2,4]triazin-4-yl)amino)-1H-imidazol-1-yl)isobenzofuran-1(3H)-one]
28 | 100 to 1000 | OC[C@@H]1CCCN1c1nc(Nc2cn([C@H]3CC[C@H](O)CC3)cn2)c2cccn2n1 [Compound 470e, (trans)-4-(4-((2-((S)-2-(hydroxymethyl)pyrrolidin-1-yl)pyrrolo[2,1-f][1,2,4]triazin-4-yl)amino)-1H-imidazol-1-yl)cyclohexanol]
